Assay results reported in publication PMC8432116, “Drug–Drug Interaction between Tacrolimus and Vonoprazan in Kidney Transplant Recipients” (Journal of Clinical Medicine, 2021).
pIC50: −log10 of the molar value. Several values for one entry are separate records, joined by “and”; a condition that tells them apart may be missing. Identical values can stand only once. Like-named read-outs stand apart in the source and are kept apart here.

What was measured:
[1] = Laboratory data of liver and kidney function before and after the switch; type: in vivo, human; conditions: during the named PPI phase; 18 recipients on tacrolimus
Procedure: (§1) Eighteen kidney transplant recipients were recruited for this study from February 2015 to July 2020 (Table 1). The recipients were treated with tacrolimus-based immunosuppression, tacrolimus QD (Graceptor®; Astellas Pharma, Tokyo, Japan) in combination with mycophenolate mofetil and corticosteroids. The initial dose of tacrolimus QD was 0.15–0.20 mg/kg/day for 3–7 days before transplantation. The patients’ PPIs were switched from oral rabeprazole to vonoprazan (TAK-438; Takecab®; Takeda Pharmaceutical Company Limited., Tokyo, Japan) for intensive gastric acid suppression on postoperative days (POD) 3–43. The median (range) dose of oral rabeprazole and vonoprazan were 0.16 (0.11–0.22) and 0.31 (0.11–0.44) mg/kg/day, respectively (Table 1). Blood concentrations of tacrolimus were […] when the rabeprazole was switched to vonoprazan. Liver function for the patients was normal. […] Major symptoms due to gastric ulcer, retching, and heartburn disappeared by switching from rabeprazole to vonoprazan.

[2] = Estimated maximum concentration in the intestinal lumen according to DDI guidelines; set-up: species or system human
Text: P-glycoprotein, a drug efflux transporter expressed in the intestinal lumen, can be considered in addition to CYP as the mechanism of the DDIs between vonoprazan and tacrolimus.

P-glycoprotein = tested on: P-glycoprotein; set-up: method as in PMID 15467223; conditions: read-out: IC50 for inhibition of P-glycoprotein transporter activity; cited from earlier work
[3] = Whole blood trough concentration and C/D ratio of tacrolimus before and after switching PPI from rabeprazole to vonoprazan; type: in vivo, human; conditions: for Trough tacrolimus concentration, typical case / C/D ratio of tacrolimus, typical case: single case; for Percentage increase of the C/D ratio: vonoprazan coadministration; for Tacrolimus trough concentration, median (range): whole blood, 18 kidney transplant recipients
Procedure: as §1
Whole blood concentrations of tacrolimus were measured using the ARCHITECT chemiluminescent immunoassay system (Abbot, Abbot Park, IL, USA). Blood samples were collected in the morning just before the morning administration of tacrolimus to determine the trough levels. Tacrolimus dose was adjusted to achieve predefined target concentration ranges of 5–10 ng/mL (POD −3–14), 7–8 ng/mL (POD 14–28), and 5–8 ng/mL (after POD 28). The change in concentration/dose (C/D; in nanogram per milliliter/milligram per kilogram) ratio of tacrolimus before and after initiating oral vonoprazan was calculated to assess the DDIs.
Genomic DNA was extracted from peripheral whole blood samples using the QIAamp DNA blood kit system (Qiagen, Hilden, Germany) according to the manufacturer’s instruction. Subjects were genotyped for CYP2C19 rs4244285 (CYP2C19*2), CYP2C19 rs4986893 (CYP2C19*3), and CYP3A5 rs776746 (CYP3A5*3) polymorphisms. These variants were identified by real-time polymerase chain reaction (PCR) using a TaqMan® Drug Metabolism Genotyping Assays (Thermo Fisher Scientific, Waltham, MA, USA) with a QuantStudio 3 real-time PCR system (Thermo Fisher Scientific). Recipients were categorized into two groups based on the CYP2C19 genotypes (extensive metabolizer (EM; CYP2C19*1/*1)), intermediate metabolizer (IM; CYP2C19*1/*2 and *1/*3), and poor metabolizer (PM; *2/*2, *2/*3, and *3/*3)] and the CYP3A5 genotypes (CYP3A5*1 carrier (CYP3A5*1/*1 and CYP3A5*1/*3)) and the noncarrier (CYP3A5*3/*3)].
The Wilcoxon signed-rank test was used to compare the difference in the concentration and C/D ratio of tacrolimus before and after switching to vonoprazan. Differences in the concentration and C/D ratio of tacrolimus among the genotypes were compared by the Mann–Whitney U test. The statistical analyses were carried out using SPSS 26.0 (IBM, Tokyo, Japan). Results with a p value of <0.05 were considered statistically significant.

[4] = Clinical observation of adverse events and gastric symptoms after switching; type: in vivo, human
Procedure: as §1

[5] = cited from earlier work; for Increase in C/D ratio of tacrolimus after the conversion: outpatient phase of post-transplantation
[6] = set-up: method as in PMID 19177031; conditions: cited from earlier work
[7] = CYP2C19 EM, n=5, rabeprazole to vonoprazan
[8] = CYP2C19 IM/PM, n=13, Rabeprazole
[9] = CYP2C19 IM/PM, n=13, Vonoprazan
[10] = CYP2C19 IM/PM, n=13, rabeprazole to vonoprazan
[11] = CYP3A5 *1 carrier, n=5, Rabeprazole
[12] = CYP3A5 *1 carrier, n=5, Vonoprazan
[13] = CYP3A5 *1 carrier, n=5, rabeprazole to vonoprazan
[14] = CYP3A5 *1 noncarrier, n=13, Rabeprazole
[15] = CYP3A5 *1 noncarrier, n=13, Vonoprazan
[16] = CYP3A5 *1 noncarrier, n=13, rabeprazole to vonoprazan
[17] = rabeprazole to vonoprazan, 18 recipients
[18] = vonoprazan coadministration vs rabeprazole

## COCCCOc1ccnc(C[S+]([O-])c2nc3ccccc3[nH]2)c1C (stereo not shown) [Rabeprazole]
[1]
  Alanine aminotransferase, median (range): 28 IU/L
  Aspartate aminotransferase, median (range): 16 IU/L
  Blood urine nitrogen, median (range): 24.2 (9.8–78.7) mg/dL
  Serum creatinine, median (range): 1.55 (0.62–4.31) mg/dL
[2]; administered at 10 mg
  Estimated maximum concentration in the intestinal lumen: 111 µM
P-glycoprotein
  pIC50: ≤ 4.00

## C=CC[C@@H]1/C=C(\C)C[C@H](C)C[C@H](OC)[C@H]2O[C@@](O)(C(=O)C(=O)N3CCCC[C@H]3C(=O)O[C@H](/C(C)=C/[C@@H]3CC[C@@H](O)[C@H](OC)C3)[C@H](C)[C@@H](O)CC1=O)[C@H](C)C[C@@H]2OC [Tacrolimus]
[3]; CYP2C19 EM, n=5, Rabeprazole
  Tacrolims C/D Ratio, median: 25.6 (ng/mL)/(mg/kg/day)
  Tacrolimus Concentration, median: 4.0 ng/mL
[3]; CYP2C19 EM, n=5, Vonoprazan
  Tacrolims C/D Ratio, median: 40.7 (ng/mL)/(mg/kg/day)
  Tacrolimus Concentration, median: 8.5 ng/mL
[3]; [7]
  ΔC/D Ratio, median: 15.1
  ΔConcentration, median: 3.6 ng/mL
[3]; [8]
  Tacrolims C/D Ratio, median: 39.5 (ng/mL)/(mg/kg/day)
  Tacrolimus Concentration, median: 5.3 ng/mL
[3]; [9]
  Tacrolims C/D Ratio, median: 50.4 (ng/mL)/(mg/kg/day)
  Tacrolimus Concentration, median: 7.7 ng/mL
[3]; [10]
  ΔC/D Ratio, median: 6.3
  ΔConcentration, median: 3 ng/mL
[3]; [11]
  Tacrolims C/D Ratio, median: 36.9 (ng/mL)/(mg/kg/day)
  Tacrolimus Concentration, median: 5.3 ng/mL
[3]; [12]
  Tacrolims C/D Ratio, median: 45.1 (ng/mL)/(mg/kg/day)
  Tacrolimus Concentration, median: 8.5 ng/mL
[3]; [13]
  ΔC/D Ratio, median: 14.6
  ΔConcentration, median: 2.8 ng/mL
[3]; [14]
  Tacrolims C/D Ratio, median: 44.9 (ng/mL)/(mg/kg/day)
  Tacrolimus Concentration, median: 5.0 ng/mL
[3]; [15]
  Tacrolims C/D Ratio, median: 50.4 (ng/mL)/(mg/kg/day)
  Tacrolimus Concentration, median: 7.5 ng/mL
[3]; [16]
  ΔC/D Ratio, median: 18.3
  ΔConcentration, median: 3.3 ng/mL
[3]; [17]
  Percent change in tacrolimus C/D ratio after the switching, median (range): 41.8% and 41.8 (2.7–129.8) %
  Percent change in tacrolimus concentration after the switching, median (range): 65.8% and 65.8 (0.0–192.5) %
[3]; after switching to vonoprazan
  Trough tacrolimus concentration, typical case: 9.4 to 10.7 ng/mL
[3]; rabeprazole phase
  C/D ratio of tacrolimus, typical case: 26.2–29.0
  Trough tacrolimus concentration, typical case: 3.8 to 4.7 ng/mL
[3]; vonoprazan phase, 10 mg, before dose escalation
  C/D ratio of tacrolimus, typical case: 33.6–37.1
[3]; vonoprazan phase, after escalation to 20 mg
  C/D ratio of tacrolimus, typical case: 41.3–48.8
[3]; [18]
  Elevation in C/D ratio of tacrolimus: 1.4 fold
  Elevation in blood concentration of tacrolimus: 1.7 fold
[3]; CYP3A5*1 carriers
  Percentage increase of the C/D ratio: 44.4%
[3]; CYP3A5*1 noncarriers
  Percentage increase of the C/D ratio: 39.1%
[3]; with rabeprazole, before switching
  Tacrolimus trough concentration, median (range): 5.2 (3.6–7.4) ng/mL
[3]; with vonoprazan, after switching
  Tacrolimus trough concentration, median (range): 8.1 (6.1–11.7) ng/mL
[3]; with rabeprazole, before switching, 18 recipients
  Tacrolimus C/D ratio, median (range): 38.1 (16.5–138.1) (ng/mL)/(mg/kg)
[3]; with vonoprazan, 7 days after initiating, 18 recipients
  Tacrolimus C/D ratio, median (range): 48.9 (26.6–207.2) (ng/mL)/(mg/kg)
[4]; all patients, after switching to vonoprazan, tacrolimus kept in therapeutic range
  Adverse events: No adverse event was observed
[5]; ref 27
  Increase in C/D ratio of tacrolimus after the conversion: 10.6%
[5]; ref 30
  Increase in C/D ratio of tacrolimus after the conversion: no increase
[5]; outpatients 2–7 years post-transplantation
  Increase of the C/D ratio of tacrolimus after switching rabeprazole to vonoprazan: 1.1 fold
[5]; outpatients, even in the CYP2C19 IM/PM in the CYP3A5*1 noncarriers
  Increase of tacrolimus trough levels after switching to vonoprazan: no significant increase
[6]
  Therapeutic range of blood concentration: 5 to 15 ng/mL

## CNCc1cc(-c2ccccc2F)n(S(=O)(=O)c2cccnc2)c1.O=C(O)/C=C/C(=O)O [Vonoprazan, 1-[5-(2-Fluorophenyl)-1-(pyridin-3-ylsulfonyl)-1H-pyrrol-3-yl]-N-methylmethanamine monofumarate]
[1]
  Alanine aminotransferase, median (range): 22 IU/L
  Aspartate aminotransferase, median (range): 15 IU/L
  Blood urine nitrogen, median (range): 17.4 (7.5–45.4) mg/dL
  Serum creatinine, median (range): 1.21 (0.58–2.84) mg/dL
[4]; switching from rabeprazole to vonoprazan
  Major symptoms due to gastric ulcer, retching and heartburn: disappeared
[2]; administered at 20 mg
  Estimated maximum concentration in the intestinal lumen: 231 µM
P-glycoprotein
  pIC50: 4.30
